Assay results as given in ChEMBL document CHEMBL4715821, “Discovery of 4-ethoxy-7H-pyrrolo[2,3-d]pyrimidin-2-amines as potent, selective and orally bioavailable LRRK2 inhibitors” (Bioorg Med Chem Lett, 2018).

Key:
[1] = target: Serine/threonine-protein kinase TBK1 (Homo sapiens) (UniProt Q9UHD2); test: Inhibition of wild-type human full length TBK1 (M1 to L729 residues) expressed in mammalian expression system assessed as residual activity at 1 uM by Kinomescan method relative to control
[2] = Unbound fraction in mouse brain; type: ADME, tissue-based
[3] = target: Dual specificity testis-specific protein kinase 1 (Homo sapiens) (UniProt Q15569); test: Inhibition of wild-type human full length TESK1 (R37 to S626 residues) expressed in bacterial expression system assessed as residual activity at 1 uM by Kinomescan method relative to control
[4] = target: Cyclin-dependent kinase 4/cyclin D1 (Homo sapiens) (UniProt P11802+P24385); test: Inhibition of wild-type human full length CDK4/cyclinD1 (M1 to E303 residues) expressed in mammalian expression system assessed as residual activity at 1 uM by Kinomescan method relative to control
[5] = target: MAP/microtubule affinity-regulating kinase 3 (Homo sapiens) (UniProt P27448); test: Inhibition of wild-type human full length MARK3 (M1 to L729 residues) expressed in bacterial expression system assessed as residual activity at 1 uM by Kinomescan method relative to control
[6] = target: Dual specificity protein kinase CLK2 (Homo sapiens) (UniProt P49760); test: Inhibition of wild-type human partial length CLK2 (D144 to R498 residues) expressed in bacterial expression system assessed as residual activity at 1 uM by Kinomescan method relative to control
[7] = target: CDK6/cyclin D3 (Homo sapiens) (UniProt P30281+Q00534); test: Inhibition of wild-type human full length CDK6 (M1 to A326 residues)/cyclin D3 expressed in mammalian expression system assessed as residual activity at 1 uM by Kinomescan method relative to control
[8] = target: RAF proto-oncogene serine/threonine-protein kinase (Homo sapiens) (UniProt P04049); test: Inhibition of wild-type human partial length RAF1 (I330 to T640 residues) expressed in bacterial expression system assessed as residual activity at 1 uM by Kinomescan method relative to control
[9] = target: Aurora kinase C (Homo sapiens) (UniProt Q9UQB9); test: Inhibition of wild-type human full length AURKC (M1 to S275 residues) expressed in bacterial expression system assessed as residual activity at 1 uM by Kinomescan method relative to control
[10] = In vivo inhibition of LRRK2 in Han-Wistar rat assessed as reduction in Ser935 phosphorylation in lung at 10 to 100 mg/kg, po by Western blot analysis; type: functional; parameters: scale not given: the % may be the effect or the level left; settings: dose 10-100 mg/kg
[11] = target: Calcium/calmodulin-dependent protein kinase type 1G (Homo sapiens) (UniProt Q96NX5); test: Inhibition of wild-type human partial length CAMK1G (M1 to A342 residues) expressed in bacterial expression system assessed as residual activity at 1 uM by Kinomescan method relative to control
[12] = target: Interleukin-1 receptor-associated kinase 1 (Homo sapiens) (UniProt P51617); test: Inhibition of wild-type human partial length IRAK1 (R194 to S712 residues) expressed in mammalian expression system assessed as residual activity at 1 uM by Kinomescan method relative to control
[13] = target: Tyrosine-protein kinase Fgr (Homo sapiens) (UniProt P09769); test: Inhibition of wild-type human partial length FGR (L233 to T529 residues) expressed in bacterial expression system assessed as residual activity at 1 uM by Kinomescan method relative to control
[14] = target: Serine/threonine-protein kinase B-raf (Homo sapiens) (UniProt P15056); test: Inhibition of wild type human BRAF (S429 to E741 residues) expressed in bacterial expression system assessed as residual activity at 1 uM by Kinomescan method relative to control
[15] = Unbound fraction in human serum; type: ADME, cell-free
[16] = target: Serine/threonine-protein kinase 16 (Homo sapiens) (UniProt O75716); test: Inhibition of wild-type human partial length STK16 (G11 to I305 residues) expressed in bacterial expression system assessed as residual activity at 1 uM by Kinomescan method relative to control
[17] = target: TRAF2 and NCK-interacting protein kinase (Homo sapiens) (UniProt Q9UKE5); test: Inhibition of wild-type human partial length TNIK (D4 to K311 residues) expressed in bacterial expression system assessed as residual activity at 1 uM by Kinomescan method relative to control
[18] = target: CDK1/Cyclin A (Homo sapiens) (UniProt P06493+P20248); test: Inhibition of wild-type human full length CDK1 (M1 to M297 residues) /Cyclin A expressed in mammalian expression system assessed as residual activity at 1 uM by Kinomescan method relative to control
[19] = target: Fibroblast growth factor receptor 1 (Homo sapiens) (UniProt P11362); test: Inhibition of wild-type human partial length FGFR1 (P357 to V669 residues) expressed in bacterial expression system assessed as residual activity at 1 uM by Kinomescan method relative to control
[20] = target: Calcium/calmodulin-dependent protein kinase type 1D (Homo sapiens) (UniProt Q8IU85); test: Inhibition of wild-type human partial length CAMK1D (M1 to K299 residues) expressed in bacterial expression system assessed as residual activity at 1 uM by Kinomescan method relative to control
[21] = target: Mitogen-activated protein kinase kinase kinase kinase 5 (Homo sapiens) (UniProt Q9Y4K4); test: Inhibition of wild-type human partial length MAP4K5 (M1 to P297 residues) expressed in bacterial expression system assessed as residual activity at 1 uM by Kinomescan method relative to control
[22] = target: Serine/threonine-protein kinase Chk1 (Homo sapiens) (UniProt O14757); test: Inhibition of CHK1 (unknown origin) assessed as residual activity at 1 uM by Kinomescan method relative to control
[23] = target: Serine/threonine-protein kinase 24 (Homo sapiens) (UniProt Q9Y6E0); test: Inhibition of wild-type human partial length MST3 (A30 to S311 residues) expressed in bacterial expression system assessed as residual activity at 1 uM by Kinomescan method relative to control
[24] = target: Serine/threonine-protein kinase WNK3 (Homo sapiens) (UniProt Q9BYP7); test: Inhibition of wild-type human partial length WNK3 (M1 to D434 residues) expressed in mammalian expression system assessed as residual activity at 1 uM by Kinomescan method relative to control
[25] = target: CDK3/Cyclin E (Homo sapiens) (UniProt P24864+Q00526); test: Inhibition of wild-type human full length CDK3 (M1 to H305 residues)/Cyclin E expressed in bacterial expression system at 1 uM by Kinomescan method; parameters: scale not given: the % may be the effect or the level left
[26] = target: Ephrin type-B receptor 3 (Homo sapiens) (UniProt P54753); test: Inhibition of wild-type human partial length EPHB3 (Q599 to T928 residues) expressed in bacterial expression system assessed as residual activity at 1 uM by Kinomescan method relative to control
[27] = target: Testis-specific serine/threonine-protein kinase 3 (Homo sapiens) (UniProt Q96PN8); test: Inhibition of wild-type human full length TSSK3 (M1 to T268 residues) expressed in mammalian expression system assessed as residual activity at 1 uM by Kinomescan method relative to control
Sequence of Testis-specific serine/threonine-protein kinase 3 (Homo sapiens) (Q96PN8 whole entry, the tested form may be a part): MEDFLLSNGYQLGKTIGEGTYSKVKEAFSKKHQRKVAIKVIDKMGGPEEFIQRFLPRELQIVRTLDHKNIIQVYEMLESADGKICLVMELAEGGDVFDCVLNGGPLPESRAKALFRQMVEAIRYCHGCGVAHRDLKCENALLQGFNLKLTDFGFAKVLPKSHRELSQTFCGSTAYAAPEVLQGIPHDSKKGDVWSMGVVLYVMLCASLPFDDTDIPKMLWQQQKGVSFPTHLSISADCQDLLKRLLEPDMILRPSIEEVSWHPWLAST

Sequence of Calcium/calmodulin-dependent protein kinase type 1G (Homo sapiens) (Q96NX5 whole entry, the tested form may be a part): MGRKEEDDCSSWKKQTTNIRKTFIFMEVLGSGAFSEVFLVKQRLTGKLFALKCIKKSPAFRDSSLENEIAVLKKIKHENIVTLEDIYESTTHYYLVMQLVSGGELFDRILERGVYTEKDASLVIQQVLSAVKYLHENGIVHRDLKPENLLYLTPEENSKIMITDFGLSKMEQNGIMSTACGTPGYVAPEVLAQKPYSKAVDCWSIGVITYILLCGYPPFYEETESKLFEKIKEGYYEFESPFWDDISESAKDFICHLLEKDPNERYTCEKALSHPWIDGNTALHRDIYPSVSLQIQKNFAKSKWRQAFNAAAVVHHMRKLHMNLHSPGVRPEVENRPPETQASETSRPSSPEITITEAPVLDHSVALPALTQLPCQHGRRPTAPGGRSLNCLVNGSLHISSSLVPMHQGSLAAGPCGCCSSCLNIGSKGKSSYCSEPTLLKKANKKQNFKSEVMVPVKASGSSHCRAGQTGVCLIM
Sequence of Serine/threonine-protein kinase B-raf (Homo sapiens) (P15056 whole entry, the tested form may be a part): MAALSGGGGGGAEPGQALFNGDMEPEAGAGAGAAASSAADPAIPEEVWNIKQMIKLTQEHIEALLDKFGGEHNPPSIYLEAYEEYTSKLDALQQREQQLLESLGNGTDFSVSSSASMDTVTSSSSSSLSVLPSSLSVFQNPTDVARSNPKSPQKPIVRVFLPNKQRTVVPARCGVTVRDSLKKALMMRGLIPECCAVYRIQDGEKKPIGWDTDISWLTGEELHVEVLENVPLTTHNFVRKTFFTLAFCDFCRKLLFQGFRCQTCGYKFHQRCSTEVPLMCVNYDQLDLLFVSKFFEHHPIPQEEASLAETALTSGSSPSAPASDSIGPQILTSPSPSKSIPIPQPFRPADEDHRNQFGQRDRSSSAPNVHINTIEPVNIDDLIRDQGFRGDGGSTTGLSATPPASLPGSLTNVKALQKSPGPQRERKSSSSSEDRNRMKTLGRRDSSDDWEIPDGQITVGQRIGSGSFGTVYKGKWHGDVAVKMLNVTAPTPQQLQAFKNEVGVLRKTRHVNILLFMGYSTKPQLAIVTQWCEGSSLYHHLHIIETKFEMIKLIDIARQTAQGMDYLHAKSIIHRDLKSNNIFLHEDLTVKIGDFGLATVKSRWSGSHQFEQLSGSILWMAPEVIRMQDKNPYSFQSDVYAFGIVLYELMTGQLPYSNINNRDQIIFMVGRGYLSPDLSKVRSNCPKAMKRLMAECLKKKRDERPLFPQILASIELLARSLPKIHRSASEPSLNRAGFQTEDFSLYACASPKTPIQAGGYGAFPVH
Sequence of RAF proto-oncogene serine/threonine-protein kinase (Homo sapiens) (P04049 whole entry, the tested form may be a part): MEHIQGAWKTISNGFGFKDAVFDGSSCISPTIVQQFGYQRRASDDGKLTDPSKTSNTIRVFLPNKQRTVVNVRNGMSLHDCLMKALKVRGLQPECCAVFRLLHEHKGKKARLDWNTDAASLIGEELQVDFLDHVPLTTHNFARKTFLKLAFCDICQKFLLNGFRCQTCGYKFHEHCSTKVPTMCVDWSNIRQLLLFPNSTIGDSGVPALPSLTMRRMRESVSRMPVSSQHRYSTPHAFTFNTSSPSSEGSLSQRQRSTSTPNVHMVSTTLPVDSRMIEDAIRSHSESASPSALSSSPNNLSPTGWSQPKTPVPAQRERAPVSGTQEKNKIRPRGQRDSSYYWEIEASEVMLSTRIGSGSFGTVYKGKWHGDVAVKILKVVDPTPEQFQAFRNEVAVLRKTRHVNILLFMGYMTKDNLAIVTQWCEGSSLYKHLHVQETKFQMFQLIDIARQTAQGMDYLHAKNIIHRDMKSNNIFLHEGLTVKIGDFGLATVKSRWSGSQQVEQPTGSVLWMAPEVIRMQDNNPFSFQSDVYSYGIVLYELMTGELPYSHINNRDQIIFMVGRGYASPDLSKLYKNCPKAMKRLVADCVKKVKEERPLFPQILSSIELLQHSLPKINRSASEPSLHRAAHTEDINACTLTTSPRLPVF
Sequence of Calcium/calmodulin-dependent protein kinase type 1D (Homo sapiens) (Q8IU85 whole entry, looked up, the tested form may be a part): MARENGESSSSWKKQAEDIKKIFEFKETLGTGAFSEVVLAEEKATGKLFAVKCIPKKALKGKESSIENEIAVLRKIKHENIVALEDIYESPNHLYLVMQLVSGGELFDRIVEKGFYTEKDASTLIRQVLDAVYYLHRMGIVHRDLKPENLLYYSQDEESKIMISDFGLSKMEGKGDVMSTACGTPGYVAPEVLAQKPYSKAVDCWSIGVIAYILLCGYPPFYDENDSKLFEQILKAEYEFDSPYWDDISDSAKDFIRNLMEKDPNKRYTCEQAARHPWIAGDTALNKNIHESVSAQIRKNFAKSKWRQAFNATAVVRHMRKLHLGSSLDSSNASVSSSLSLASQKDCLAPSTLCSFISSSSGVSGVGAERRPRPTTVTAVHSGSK
Sequence of Serine/threonine-protein kinase 16 (Homo sapiens) (O75716 whole entry, the tested form may be a part): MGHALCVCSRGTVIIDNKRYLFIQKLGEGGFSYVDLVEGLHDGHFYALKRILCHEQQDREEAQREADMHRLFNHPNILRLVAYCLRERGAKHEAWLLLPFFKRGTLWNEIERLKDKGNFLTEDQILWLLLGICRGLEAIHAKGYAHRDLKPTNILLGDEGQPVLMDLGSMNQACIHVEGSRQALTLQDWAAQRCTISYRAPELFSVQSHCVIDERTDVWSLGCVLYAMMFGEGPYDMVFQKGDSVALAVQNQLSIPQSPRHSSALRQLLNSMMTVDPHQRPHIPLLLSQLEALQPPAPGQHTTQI
Sequence of Serine/threonine-protein kinase Chk1 (Homo sapiens) (O14757 whole entry, the tested form may be a part): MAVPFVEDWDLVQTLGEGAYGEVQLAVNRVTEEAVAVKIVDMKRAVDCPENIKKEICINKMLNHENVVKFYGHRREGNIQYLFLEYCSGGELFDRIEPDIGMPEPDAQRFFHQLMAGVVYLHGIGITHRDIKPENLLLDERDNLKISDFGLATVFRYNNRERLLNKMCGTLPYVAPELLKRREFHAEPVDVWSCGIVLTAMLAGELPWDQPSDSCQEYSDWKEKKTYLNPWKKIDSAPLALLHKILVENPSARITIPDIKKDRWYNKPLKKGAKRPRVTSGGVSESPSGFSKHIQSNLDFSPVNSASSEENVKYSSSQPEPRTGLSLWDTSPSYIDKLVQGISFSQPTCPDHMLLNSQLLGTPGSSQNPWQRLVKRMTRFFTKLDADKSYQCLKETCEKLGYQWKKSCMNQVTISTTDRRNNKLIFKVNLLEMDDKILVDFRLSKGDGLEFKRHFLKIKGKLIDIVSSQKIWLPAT
Sequence of Mitogen-activated protein kinase kinase kinase kinase 5 (Homo sapiens) (Q9Y4K4 whole entry, looked up, the tested form may be a part): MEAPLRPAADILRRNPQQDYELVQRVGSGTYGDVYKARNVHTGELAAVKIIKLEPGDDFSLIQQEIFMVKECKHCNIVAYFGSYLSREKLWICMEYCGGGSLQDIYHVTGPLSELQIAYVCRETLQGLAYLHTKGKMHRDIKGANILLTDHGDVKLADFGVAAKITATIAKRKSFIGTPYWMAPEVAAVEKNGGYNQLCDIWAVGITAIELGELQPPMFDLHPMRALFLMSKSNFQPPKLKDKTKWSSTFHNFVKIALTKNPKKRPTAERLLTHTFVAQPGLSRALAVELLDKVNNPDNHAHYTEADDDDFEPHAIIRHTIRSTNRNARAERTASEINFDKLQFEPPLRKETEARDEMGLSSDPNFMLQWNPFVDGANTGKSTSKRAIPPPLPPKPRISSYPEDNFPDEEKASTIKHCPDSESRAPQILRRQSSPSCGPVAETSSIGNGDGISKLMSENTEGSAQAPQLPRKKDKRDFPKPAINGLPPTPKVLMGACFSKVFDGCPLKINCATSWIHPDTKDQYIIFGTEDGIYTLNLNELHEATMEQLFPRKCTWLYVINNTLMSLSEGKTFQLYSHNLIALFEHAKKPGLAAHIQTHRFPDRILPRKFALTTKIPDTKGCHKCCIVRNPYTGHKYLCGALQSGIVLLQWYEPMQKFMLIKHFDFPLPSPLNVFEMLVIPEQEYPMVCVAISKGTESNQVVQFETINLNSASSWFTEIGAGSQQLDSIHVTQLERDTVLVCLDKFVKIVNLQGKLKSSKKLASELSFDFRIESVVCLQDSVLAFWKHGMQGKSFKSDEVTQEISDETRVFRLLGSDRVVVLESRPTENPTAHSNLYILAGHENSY
Sequence of Fibroblast growth factor receptor 1 (Homo sapiens) (P11362 22-822 limits assumed): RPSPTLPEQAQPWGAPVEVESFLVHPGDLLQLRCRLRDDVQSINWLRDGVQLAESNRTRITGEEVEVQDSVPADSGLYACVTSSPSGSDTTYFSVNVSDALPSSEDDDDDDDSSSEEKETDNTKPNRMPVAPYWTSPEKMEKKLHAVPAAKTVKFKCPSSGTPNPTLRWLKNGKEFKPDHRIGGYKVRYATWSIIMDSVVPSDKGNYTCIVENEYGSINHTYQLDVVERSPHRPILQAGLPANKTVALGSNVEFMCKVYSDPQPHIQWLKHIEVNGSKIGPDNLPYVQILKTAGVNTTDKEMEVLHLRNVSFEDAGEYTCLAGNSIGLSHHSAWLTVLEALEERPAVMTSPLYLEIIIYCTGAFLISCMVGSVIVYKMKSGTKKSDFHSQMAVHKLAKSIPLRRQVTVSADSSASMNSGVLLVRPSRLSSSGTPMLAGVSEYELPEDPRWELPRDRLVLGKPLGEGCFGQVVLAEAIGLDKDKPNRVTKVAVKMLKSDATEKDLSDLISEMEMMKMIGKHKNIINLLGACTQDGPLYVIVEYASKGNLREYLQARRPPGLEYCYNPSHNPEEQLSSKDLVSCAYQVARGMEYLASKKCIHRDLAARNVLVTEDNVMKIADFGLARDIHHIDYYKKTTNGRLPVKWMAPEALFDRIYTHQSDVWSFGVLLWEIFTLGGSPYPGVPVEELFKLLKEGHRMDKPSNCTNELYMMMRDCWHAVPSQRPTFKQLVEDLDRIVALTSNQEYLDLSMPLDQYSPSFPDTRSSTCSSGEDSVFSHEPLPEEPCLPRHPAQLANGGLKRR

## CCOc1nc(Nc2ccc(C(=O)N3CCOCC3)cc2OC)nc2[nH]ccc12
[1]
  Activity: 91.7%
[2]
  fraction unbound: 0.01
[3]
  Activity: 104%
[4]
  Activity: 97.4%
[5]
  Activity: 92.4%
[6]
  Activity: 28.3%
[7]
  Activity: 96.5%
[8]
  Activity: 97.5%
[9]
  Activity: 97.3%
[10]
  Activity: 100%
[11]
  Activity: 106%
[12]
  Activity: 105%
[13]
  Activity: 104%
[14]
  Activity: 88%
[15]
  fraction unbound: 0.059
[16]
  Activity: 98.7%
[17]
  Activity: 98.4%
[18]
  Activity: 91.4%
[19]
  Activity: 90.7%
[20]
  Activity: 122%
[21]
  Activity: 101%
[22]
  Activity: 84.5%
[23]
  Activity: 97.4%
[24]
  Activity: 71.8%
[25]
  Activity: 87.7%
[26]
  Activity: 94.4%
[27]
  Activity: 116%
